How the values were obtained:
NF-κB [1] = experiment: NF-κB activation in orthotopic xenografts by immunohistochemistry; type: in vivo, nude mice; details: lung tissue of orthotopic A549 xenografts, PS V treatment as in Example 1
Procedure: We evaluated the effect of PS V on the activation of NF-κB, the master regulator of inflammation, in cultured A549 human lung cancer cells as well as in human lung cancer xenografts from the same cells.
We established orthotopic xenografts in nude mice as described in Example 1. Following treatment of the mice with PS V in a similar manner, lung tissue was evaluated by immunohistochemistry, following standard protocols. We used an antibody that assesses activation of NF-κB by phosphorylation (Cell Signaling, Danvers, Mass.). FIG. 10 provides inhibitory effect of PS V on the activation of NF-κB.

human cancer cells = experiment: Cytotoxicity to human cancer cells; type: cell-based; details: intact PS V vs its three metabolites
[2] = test system: A549 human lung cancer cells; experiment: A549 subcutaneous xenografts, PS V and erlotinib; type: in vivo, nude mice; details: by day 14; PS V 80 mg/kg ip, erlotinib 75 mg/kg po, 6 days/week; starting tumor volume subtracted
Excerpt: TO this end, we inoculated A549 human lung cancer cells subcutaneously into nude mice, following standard protocols.

inflammation = details: applied systemically or topically; cited from earlier work
NF-κB [3] = experiment: NF-κB activation in cultured cells by Electrophoretic Mobility Shift Assay (EMSA); type: cell-based, human; details: cultured A549 cells; 1-2× its IC50 concentration for 6 h
A549 xenografts = experiment: A549 subcutaneous xenografts, PS V and curcumin; type: in vivo, female nude mice; details: for inhibition of tumor growth (in words): A549 xenografts, daily treatment to day 36; for reduction in tumor weight: end of study, vs control
Procedure: Polymeric nanoparticles of poly(ε-caprolactone) (11000)-polyethylene glycol (5000) with entrapped curcumin were prepared according to the nanopercipitation-solvent displacement method. […] Then, the mice were inoculated subcutaneously on both flanks with […] cells (2×10^6 each). The treatment was resumed one day after tumor implantation and continued daily until the end of the study.

[4] = Drug levels in lungs and plasma after inhalation vs oral gavage; type: in vivo, mice
Excerpt: The oral dose was 23 times higher than the inhalational dose.

[5] = mouse, in vivo, inhaled or intranasal
Procedure: (§1) After 8 min of inhalation treatment, BALB/c nude mice were euthanized at various time points. Drug levels were analyzed by HPLC in plasma and lung tissues.

[6] = Pharmacokinetic parameters after inhalational administration (HPLC, lung and plasma); details: after 8 min inhalation of PS V
Procedure: as §1

lung cancer = details: pre-clinical models of lung cancer; cited from earlier work
[7] = Aerosolization of compounds added to smoking tobacco (filter capture, HPLC); type: physicochemical; details: lit cigarette, alone or mixed with erlotinib
Excerpt: We used an experimental system that recapitulates the essential features of the act of smoking (FIG. 8). In this apparatus, smoke from the lit cigarette was drawn through the tubing of the apparatus by external suction. […] The aerosolized test drug was deposited onto this filter. At the conclusion of the study, the filter was removed and the deposited test drug was extracted with acetonitrile and subjected to HPLC analysis, as already described.
FIG. 8. depicts the apparatus for the aerosolization of anticancer compounds. Upper panel: The test compound is added to the cigarette. […] When the system was turned on, the temperature in the heating chamber reached ˜200° C. Heating energy was provided by the battery through a resistance wire inside the heating chamber. Unimpeded flow of the gas phase in the ceramic chamber was allowed by its design; the arrows depict such flow.

Compound: CCOP(=O)(OCC)OCCCCOC(=O)CC1=C(C)/C(=C/c2ccc([S+](C)[O-])cc2)c2ccc(F)cc21 (stereo not drawn) [PS V, phospho-sulindac]
- activation of NF-κB (phosphorylation, immunohistochemistry) (NF-κB [1]): suppresses the activation of NF-κB
- cytotoxicity compared with sulindac, sulindac sulfide XI and sulindac sulfone XII (human cancer cells): more cytotoxic
- reduced tumor volume compared to controls [2]: 49%
- effect on inflammation (inflammation): eliminated or greatly reduced inflammation
- NF-κB activation (EMSA) (NF-κB [3]): suppressed NF-κB activation
- inhibition of tumor growth (in words) (A549 xenografts): small inhibition of tumor growth
- average tumor volume at the end of the study (A549 xenografts; day 36, PS V 200 mg/kg/d, curcumin 500 mg/kg/d, control 521±76 mm^3): 419±36 mm^3
- reduction in tumor weight (A549 xenografts): 27%
- total drug levels (PS V plus its metabolites) in lungs ([4]; inhalation 6.5 mg/kg compared to oral 150 mg/kg): significantly higher
- level of intact PS V in lungs ([4]; inhalational 6.5 mg/kg body weight): > 20 nmol/g
- level of intact PS V in lungs ([4]; oral 150 mg/kg body weight): < 2 nmol/g
- PS levels in plasma ([4]; plasma): undetectable

Compound: CC1=C(CC(=O)O)c2cc(F)ccc2/C1=C\c1ccc(S(C)(=O)=O)cc1 [Sulindac sulfone XII, sulindac sulfone]
- Cmax [5]: 4.6 nmol/g

Compound: CC1=C(CC(=O)O)c2cc(F)ccc2/C1=C\c1ccc([S+](C)[O-])cc1 (stereo not drawn) [Sulindac, sulindac]
- Tmax ([6]; lung): 0 h
- Tmax ([6]; plasma): 0 h

Compound: COc1cc(/C=C/C(=O)CC(=O)/C=C/c2ccc(O)c(OC)c2)ccc1O [curcumin, reference compound]
- efficacy as a single agent (lung cancer): < 30%
- inhibition of tumor growth (in words) (A549 xenografts): ineffective
- reduction in tumor weight (A549 xenografts): not in the curcumin-treated group

Compound: C#Cc1cccc(Nc2ncnc3cc(OCCOC)c(OCCOC)cc23)c1 [erlotinib, reference compound]
- reduced tumor volume compared to controls [2]: 74%

Compound: CCOP(=O)(OCC)OCCCCOC(=O)c1ccccc1OC(C)=O [phospho-aspirin 119, phospho-aspirin]
- effect on inflammation (inflammation): eliminated or greatly reduced inflammation

Compound: CCOP(=O)(OCC)OCCCCNC(=O)C(C)c1ccc(CC(C)C)cc1 (stereo not drawn) [phospho-ibuprofen amide IV, phospho-ibuprofen amide]
- aerosolization when added to smoking tobacco [7]: aerosolized successfully

— patent US20140088045A1, “PRODUCT COMPRISING A NICOTINE-CONTAINING MATERIAL AND AN ANTI-CANCER AGENT” (priority 2012, published 2014)
